Measurements taken from ChEMBL document CHEMBL1150141, “Cytotoxic diarylheptanoids from the roots of Juglans mandshurica” (J Nat Prod, 2002).
Converted amounts (≈) assume the structure as drawn.

Tests used:
HT-29 = assay: Cytotoxicity against human HT-29 cells by MTT assay; assay type: functional, cell-based
A549 = assay: Cytotoxicity against human A549 cells by MTT assay; assay type: functional, cell-based

Row | SMILES | IC50 (HT-29) | IC50 (A549)
1 | COc1cc(C2CC(O)CC(C(O)Cc3ccc(O)cc3)O2)ccc1O (configuration not stated) | > 50 µg/mL | > 50 µg/mL
2 | COc1cc(CC/C=C/C(=O)CCc2ccc(O)cc2)ccc1O | 8.2 µg/mL (≈ 25.1 µM) | 5.4 µg/mL (≈ 16.5 µM)
3 | COc1cc2ccc1Oc1cc(ccc1O)CCC(=O)CCCC2 | 5.3 µg/mL (≈ 16.2 µM) | 2.2 µg/mL (≈ 6.74 µM)
4 | CC(C)(O)[C@@H]1CC[C@@]2(C)CCC[C@@](C)(O)[C@@H]2C1 | 12.9 µg/mL (≈ 53.7 µM) | 9.9 µg/mL (≈ 41.2 µM)
5 | COc1ccc2cc1Oc1ccc(c(O)c1OC)CCCCC(O)CC2 (configuration not stated) | 23.9 µg/mL (≈ 66.7 µM) | 11.5 µg/mL (≈ 32.1 µM)
6 | COC(=O)C(O)(c1cc2c(c3oc([C@]4(C)C[C@@H]4C)cc(=O)c13)C(=O)c1c(ccc([C@H]3C[C@](C)(N(C)C)[C@H](O[C@@H]4C[C@H](OC)[C@H](O)[C@@H](C)O4)[C@H](C)O3)c1O)C2=O)[C@H]1O[C@H](C)[C@@H](O)[C@@H](OC)[C@@H]1O (some centres not stated) [ALTROMYCIN B] | 3.9 µg/mL (≈ 4.22 µM) | 4.2 µg/mL (≈ 4.55 µM)
